Columns and labels:
[1] = molecular target: GDP-bound NRAS wild-type protein (Homo sapiens, UniProt P01111); assay: Binding to NRAS by surface plasmon resonance (SPR), Single Cycle Kinetics; details: SPR KD ratio NRAS/KRAS, class symbols
[2] = molecular target: GDP-bound HRAS wild-type protein (Homo sapiens, UniProt P01112); assay: Binding to HRAS by surface plasmon resonance (SPR), Single Cycle Kinetics; details: SPR KD ratio HRAS/KRAS, class symbols
[3] = molecular target: GDP-bound KRAS wild-type protein (Homo sapiens, UniProt P01116); assay: Binding to KRAS by surface plasmon resonance (SPR), Single Cycle Kinetics; details: SPR Single Cycle Kinetics, GDP-bound KRAS wild-type protein, 1:1 binding model; read-out: KRAS KD
Chain of GDP-bound KRAS wild-type protein (P01116 whole entry): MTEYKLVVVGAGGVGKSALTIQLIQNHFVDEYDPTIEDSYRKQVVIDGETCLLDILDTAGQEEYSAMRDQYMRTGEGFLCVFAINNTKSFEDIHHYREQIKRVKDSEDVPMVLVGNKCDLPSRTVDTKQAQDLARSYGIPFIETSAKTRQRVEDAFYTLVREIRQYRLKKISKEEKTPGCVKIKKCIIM

Chain of GDP-bound HRAS wild-type protein (P01112 whole entry): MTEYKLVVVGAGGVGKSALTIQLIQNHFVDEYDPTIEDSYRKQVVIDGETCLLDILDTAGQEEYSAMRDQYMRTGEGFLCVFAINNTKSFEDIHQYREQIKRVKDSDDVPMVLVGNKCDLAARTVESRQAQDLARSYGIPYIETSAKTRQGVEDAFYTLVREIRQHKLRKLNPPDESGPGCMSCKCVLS
Chain of GDP-bound NRAS wild-type protein (P01111 whole entry): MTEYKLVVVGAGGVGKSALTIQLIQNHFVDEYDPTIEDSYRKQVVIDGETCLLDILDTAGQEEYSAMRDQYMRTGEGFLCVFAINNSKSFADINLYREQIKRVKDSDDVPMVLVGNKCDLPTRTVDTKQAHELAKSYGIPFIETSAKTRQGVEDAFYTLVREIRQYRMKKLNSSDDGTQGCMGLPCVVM

| SMILES | NRAS/KRAS (ratio of KD value with respect to GDP-bound NRAS wild-type protein to KD value with respect to KRAS) [1] | HRAS/KRAS (ratio of KD value with respect to GDP-bound HRAS wild-type protein to KD value with respect to KRAS) [2] | Kd [3] [nM] |
| --- | --- | --- | --- |
| CCCN(C)C(=O)[C@@H]1CC(=O)N(C)[C@@H](CC)C(=O)N[C@@H]([C@@H](C)CC)C(=O)N(C)CC(=O)N(C)[C@H]2C/C=C\CCN(C2=O)[C@@H](Cc2ccc(C(F)(F)F)cc2)C(=O)N(C)CC(=O)N[C@@H](CCc2cc(F)c(C(F)(F)F)c(F)c2)C(=O)N2C[C@H](OCC3CC3)C[C@H]2C(=O)NC2(CCC2)C(=O)N(C)[C@@H](C2CCCC2)C(=O)N1C [PP2913] | A (a compound having 10 or more and less than 20 is denoted as A) | A (a compound having 10 or more and less than 20 is denoted as A) | 0.17 |
| CCCN(C)C(=O)[C@@H]1CC(=O)N(C)[C@@H](CC)C(=O)N[C@@H]([C@@H](C)CC)C(=O)N(C)CC(=O)N(C)[C@H]2C/C=C\CCN(C2=O)[C@@H](Cc2ccc(C(F)(F)F)cc2)C(=O)N(C)CC(=O)N[C@@H](CCc2cc(F)c(C(F)(F)F)c(F)c2)C(=O)N2CC[C@H]2C(=O)NC2(CCC2)C(=O)N(C)[C@@H](C2CCCC2)C(=O)N1C [PP2915] | A (a compound having 10 or more and less than 20 is denoted as A) | A (a compound having 10 or more and less than 20 is denoted as A) | 1.2 |
| CCC(CC)[C@H]1C(=O)N(C)[C@H](C(=O)N(C)C)CC(=O)N(C)[C@@H](COC)C(=O)N[C@@H]([C@@H](C)CC)C(=O)N(C)CC(=O)N(C)[C@H]2C/C=C\CCN(C2=O)[C@@H](Cc2ccc(C(F)(F)F)cc2)C(=O)N(C)CC(=O)N[C@@H](CCc2cc(F)c(C(F)(F)F)c(F)c2)C(=O)N2CCCC[C@H]2C(=O)NC2(CC(C)(C)C2)C(=O)N1C [PP2916] | A (a compound having 10 or more and less than 20 is denoted as A) | A (a compound having 10 or more and less than 20 is denoted as A) | 1.3 |
| CCC(CC)[C@H]1C(=O)N(C)[C@H](C(=O)N(C)C)CC(=O)N(C)[C@@H](COC)C(=O)N[C@@H]([C@@H](C)CC)C(=O)N(C)CC(=O)N(C)[C@H]2C/C=C\CCN(C2=O)[C@@H](Cc2ccc(C(F)(F)F)cc2)C(=O)N(C)CC(=O)N[C@@H](CCc2cc(F)c(C(F)(F)F)c(F)c2)C(=O)N2CCOC[C@H]2C(=O)NC2(CC(C)(C)C2)C(=O)N1C [PP2917] | AA (a compound having 20 or more is denoted as AA) | A (a compound having 10 or more and less than 20 is denoted as A) | 1.4 |
| CCC(CC)[C@H]1C(=O)N(C)[C@H](C(=O)N(C)C)CC(=O)N(C)[C@@H](COC)C(=O)N[C@@H]([C@@H](C)CC)C(=O)N(C)CC(=O)N(C)[C@H]2C/C=C\CCN(C2=O)[C@@H](Cc2ccc(C(F)(F)F)cc2)C(=O)N(C)CC(=O)N[C@@H](CCc2cc(F)c(C(F)(F)F)c(F)c2)C(=O)N2CC[C@H]2C(=O)NC2(CC(C)(C)C2)C(=O)N1C [PP2918] | AA (a compound having 20 or more is denoted as AA) | A (a compound having 10 or more and less than 20 is denoted as A) | 1.8 |
| CCC[C@H]1C(=O)N[C@@H]([C@@H](C)CC)C(=O)N(C)CC(=O)N(C)[C@H]2C/C=C\CCN(C2=O)[C@@H](Cc2ccc(C(F)(F)F)cc2)C(=O)N(C)CC(=O)N[C@@H](CCc2ccc(Cl)c(Cl)c2)C(=O)N2CCOC[C@H]2C(=O)NC2(CC(C)(C)C2)C(=O)N(C)[C@@H](C(CC)CC)C(=O)N(C)[C@H](C(=O)N(C)C)CC(=O)N1C [PP2920] | AA (a compound having 20 or more is denoted as AA) | A (a compound having 10 or more and less than 20 is denoted as A) | 4 |
| CCC[C@H]1C(=O)N[C@@H]([C@@H](C)CC)C(=O)N(C)CC(=O)N(C)[C@H]2C/C=C\CCN(C2=O)[C@@H](Cc2ccc(C(F)(F)F)cc2)C(=O)N(C)CC(=O)N[C@@H](CCc2ccc(Cl)c(Cl)c2)C(=O)N2CC[C@H]2C(=O)NC2(CC(C)(C)C2)C(=O)N(C)[C@@H](C(CC)CC)C(=O)N(C)[C@H](C(=O)N(C)C)CC(=O)N1C [PP2921] | AA (a compound having 20 or more is denoted as AA) | A (a compound having 10 or more and less than 20 is denoted as A) | 6.9 |
| CCC[C@H]1C(=O)N[C@@H]([C@@H](C)CC)C(=O)N(C)CC(=O)N(C)[C@H]2C/C=C\CCN(C2=O)[C@@H](Cc2ccc(C(F)(F)F)cc2)C(=O)N(C)CC(=O)N[C@@H](CCc2ccc(C(F)(F)F)c(Cl)c2)C(=O)N2CCCC[C@H]2C(=O)NC2(CC(C)(C)C2)C(=O)N(C)[C@@H](C(CC)CC)C(=O)N(C)[C@H](C(=O)N(C)C)CC(=O)N1C [PP2928] | AA (a compound having 20 or more is denoted as AA) | A (a compound having 10 or more and less than 20 is denoted as A) | 4.8 |
| CCC[C@H]1C(=O)N[C@@H]([C@@H](C)CC)C(=O)N(C)CC(=O)N(C)[C@H]2C/C=C\CCN(C2=O)[C@@H](Cc2ccc(C(F)(F)F)cc2)C(=O)N(C)CC(=O)N[C@@H](CCc2ccc(C(F)(F)F)c(Cl)c2)C(=O)N2CCOC[C@H]2C(=O)NC2(CC(C)(C)C2)C(=O)N(C)[C@@H](C(CC)CC)C(=O)N(C)[C@H](C(=O)N(C)C)CC(=O)N1C [PP2929] | AA (a compound having 20 or more is denoted as AA) | A (a compound having 10 or more and less than 20 is denoted as A) | 2.3 |
| CCC[C@H]1C(=O)N[C@@H]([C@@H](C)CC)C(=O)N(C)CC(=O)N(C)[C@H]2C/C=C\CCN(C2=O)[C@@H](Cc2ccc(C(F)(F)F)cc2)C(=O)N(C)CC(=O)N[C@@H](CCc2ccc(C(F)(F)F)c(OC)c2)C(=O)N2CCCC[C@H]2C(=O)NC2(CC(C)(C)C2)C(=O)N(C)[C@@H](C(CC)CC)C(=O)N(C)[C@H](C(=O)N(C)C)CC(=O)N1C [PP2934] | AA (a compound having 20 or more is denoted as AA) | A (a compound having 10 or more and less than 20 is denoted as A) | 2 |
| CCC[C@H]1C(=O)N[C@@H]([C@@H](C)CC)C(=O)N(C)CC(=O)N(C)[C@H]2C/C=C\CCN(C2=O)[C@@H](Cc2ccc(C(F)(F)F)cc2)C(=O)N(C)CC(=O)N[C@@H](CCc2ccc(C(F)(F)F)c(OC)c2)C(=O)N2CCOC[C@H]2C(=O)NC2(CC(C)(C)C2)C(=O)N(C)[C@@H](C(CC)CC)C(=O)N(C)[C@H](C(=O)N(C)C)CC(=O)N1C [PP2935] | A (a compound having 10 or more and less than 20 is denoted as A) | A (a compound having 10 or more and less than 20 is denoted as A) | 1.5 |

Reference: patent US20240158446A1, “CYCLIC COMPOUND HAVING SELECTIVE INHIBITORY ACTION ON KRAS OVER HRAS AND NRAS” (CHUGAI SEIYAKU KABUSHIKI KAISHA, priority 2021, published 2024)
